Measurements published in patent publication US12435091B2, “RNA-binding protein multimerization inhibitors and methods of use thereof” (THE UAB RESEARCH FOUNDATION, priority 2020, dated 2025).
Read-outs that look alike come from different tables or passages of the source.

How the values were obtained:
HuR = target: T1, HuR (Homo sapiens, UniProt Q15717); assay: cell-based split firefly luciferase-HuR dimerization assay; conditions: for IC50: read-out: HuR IC50
T1 construct: expressed in transfected cells; host or cells: U251 glioma cells, doxycycline-inducible constructs
Method: (§1) The oncogenic activity of HuR is driven by subcellular localization into the cytoplasm and formation of multimers of HuR. To develop cell based assays to characterize the ability of small molecules to disrupt this process, a split luciferase assay detecting the formation of HuR dimers was developed. The assays were performed in 96 well plates with clear bottom (Corning Inc., Corning, NY). Cells with designed constructs (30,000-50,000 in number) were plated per well; the constructs were induced by doxycycline (0.75 ug/ml) for 48 hours. The evaluated compounds at different concentrations and the corresponding vehicle as the control were administered for 6 hours. The luminescence signals were detected by using InfinitiM200 plate reader (TECAN, Morrisville, NC) in the presence of the luciferase substrate luciferin (D-Luciferin, potassium salt), which was purchased from GoldBio (St Louis, MO). A multichannel pipette (XL 3000I™, Denville Scientific, South Plainfield, NJ) was used in all procedures to ensure the experiment quality.
The assay used the coding sequence of HuR in frame with the N-terminus of firefly luciferase or the C-terminus as depicted in FIG. 2A. When HuR forms dimers in this case, luciferase is generated and with luciferin present, luminescence is generated.
(§2) Squares represent luminescence signal from reporter representing HuR dimers (U251 cells co-expressing HuR-Nluc and HuR-Cluc constructs); circles represent luminescence signal from control reporter (U251 cells expressing Fluc construct). Results are shown as mean+SD.

[1] = tested on: U251 cells expressing Fluc construct; assay: control Fluc (full length luciferase) reporter assay in U251 cells; assay type: cell-based; conditions: for inhibition at 50 µM / inhibition at 100 µM: Homo sapiens, U-251, 6 h, read-out: Fluc Imax % Inh; for inhibition at 50 µM: Concn 50 uM; for inhibition at 100 µM: Concn 100 uM
Method: as §1, with “quality. […]” for “quality.”
as §2

[2] = split luciferase HuR dimerization assay, compounds administered for 6 hours
[3] = U251 cells co-expressing HuR-Nluc and HuR-Cluc, 6 hours of treatment

T1 sequence (Q15717 whole entry): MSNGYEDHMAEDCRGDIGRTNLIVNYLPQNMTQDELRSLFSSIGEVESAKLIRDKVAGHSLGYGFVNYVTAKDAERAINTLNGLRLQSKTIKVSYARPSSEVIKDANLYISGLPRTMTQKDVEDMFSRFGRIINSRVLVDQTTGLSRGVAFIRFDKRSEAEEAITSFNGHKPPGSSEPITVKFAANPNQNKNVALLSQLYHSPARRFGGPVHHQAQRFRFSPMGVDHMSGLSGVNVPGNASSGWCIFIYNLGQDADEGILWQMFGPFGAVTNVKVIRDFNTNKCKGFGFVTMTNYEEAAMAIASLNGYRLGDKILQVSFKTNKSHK

Compound | IC50 (HuR; [2]) | inhibition at 50 µM [1] | HuR N/C Imax % Inh (HuR; Concn 50 uM) | further results
CCCN(C)c1ccc2ncc(-c3cccc4cnccc34)n2n1 [Compound 17, 3-(Isoquinolin-5-yl)-N-methyl-N-propylimidazo[1,2-b]pyridazin-6-amine] | > 50 µM |  |  | 
c1cc2cc(-c3cnc4ccc(NC5CCOCC5)nn34)ccc2o1 [Compound 10] | > 30 µM |  |  | 
COc1ncccc1-c1cnn2ccc(N3CCN(C(=O)OC(C)C)CC3)nc12 [SRI-43414] |  | 28% | 45% | IC50 (HuR; [3]): > 50 µM
CN(c1ccc2ncc(-c3ccc4nccn4c3)n2n1)C1CCOCC1 [Compound 18, 3-(Imidazo[1,2-a]pyridin-6-yl)-N-methyl-N-(tetrahydro-2H-pyran-4-yl)imidazo[1,2-b]pyridazin-6-amine] | 3 µM | 6% | 89% | IC50 (HuR; [3]): 3 µM
CN(c1ccc2ncc(-c3ccccc3)n2n1)C1CCOCC1 [Compound 14, N-Methyl-3-phenyl-N-(tetrahydro-2H-pyran-4-yl)imidazo[1,2-b]pyridazin-6-amine] | 23 µM |  |  | 
O=C(c1ccc2nsnc2c1)N1CCN(C(=O)C2CC2c2cccs2)CC1 (stereo not shown) [SRI-43650] |  | 0% | 0% | 
CCC(C)NS(=O)(=O)c1ccc2oc(=O)ccc2c1 (stereo not shown) [SRI-43652] |  | 0% | 0% | 
CCCN(C)c1ccc2ncc(-c3ccc4[nH]ncc4c3)n2n1 [Compound 49, 3-(1H-Indazol-5-yl)-N-methyl-N-propylimidazo[1,2-b]pyridazin-6-amine] | 0.6 µM |  |  | inhibition at 100 µM [1]: 12%; HuR N/C Imax % Inh (HuR; Concn 100 uM): 89%; IC50 (HuR; [3]): 0.6 µM
Clc1ccc2ncc(-c3ccc4cn[nH]c4c3)n2n1 [SRI-43183] |  |  |  | inhibition at 100 µM [1]: 20%; HuR N/C Imax % Inh (HuR; Concn 100 uM): 76%
c1cncc(-c2cnc3ccc(NC4CCOCC4)nn23)c1 [Compound 8] | > 30 µM |  |  | 
c1cnc2cc(-c3cnc4ccc(NC5CCOCC5)nn34)ccc2n1 [Compound 12] | 12 µM |  |  | 
CN(c1ccc2ncc(-c3cnc4[nH]ncc4c3)n2n1)C1CCOCC1 [Compound 55, N-Methyl-3-(1H-pyrazolo[3,4-b]pyridin-5-yl)-N-(tetrahydro-2H-pyran-4-yl)imidazo[1,2-b]pyridazin-6-amine] | 1.2 µM | 10% | 90% | IC50 (HuR; [3]): 1.2 µM
Cc1nn(C)c2ccc(-c3cnc4ccc(NC5CCOCC5)nn34)cc12 [Compound 43, 3-(1,3-Dimethyl-1H-indazol-5-yl)-N-(tetrahydro-2H-pyran-4-yl)imidazo[1,2-b]pyridazin-6-amine] |  |  |  | HuR IC50 (HuR; [2]): Insoluble
CS(=O)(=O)c1ccc(-c2cnc3ccc(NC4CCOCC4)nn23)cc1 [Compound 6] | > 30 µM |  |  | 
O=C(c1ccc(=O)[nH]c1)N1CCN(C(=O)C2CC2c2ccccc2)CC1 (stereo not shown) [SRI-43653] |  | 0% | 0% | 
Clc1ncc2nnn(-c3ccc4cn[nH]c4c3)c2n1 [SRI-42123] |  | 0% | 0% | 
CCCN(C)c1ccc2ncc(-c3ccc4c(C)n[nH]c4c3)n2n1 [Compound 33, N-Methyl-3-(3-methyl-1H-indazol-6-yl)-N-propylimidazo[1,2-b]pyridazin-6-amine] | 25 µM |  |  | 
Cc1cc(-c2cnn3c(NC[C@H]4C[C@@](C)(O)C4)cc(Oc4cccnc4)nc23)ccc1C(=O)NC1CC1 [SRI-41646] |  |  |  | inhibition at 100 µM [1]: 15%; HuR N/C Imax % Inh (HuR; Concn 100 uM): 3%; IC50 (HuR; [3]): > 100 µM
COc1ccc(-c2[nH]ncc2C(=O)NCC2CC2)cc1Cl [SRI-43649] |  | 0% | 0% | 
c1cc2[nH]ncc2cc1-c1cnc2ccc(OC3CCOCC3)nn12 [Compound 57, 3-(1H-Indazol-5-yl)-6-((tetrahydro-2H-pyran-4-yl)oxy)imidazo[1,2-b]pyridazine] | 2 µM | 12% | 89% | 

Compound | IC50 (HuR; [2]) | inhibition at 50 µM [1] | HuR N/C Imax % Inh (HuR; Concn 50 uM) | further results
c1cc2[nH]ncc2cc1-c1cnc2ccc(N3CCOCC3)nn12 [Compound 51, 4-(3-(1H-Indazol-5-yl)imidazo[1,2-b]pyridazin-6-yl)morpholine] | 7 µM | 27% | 87% | IC50 (HuR; [3]): 7 µM
c1cc2cn[nH]c2cc1-c1cnc2ccc(N(CC3CC3)C3CCOCC3)nn12 [Compound 28, N-(Cyclopropylmethyl)-3-(1H-indazol-6-yl)-N-(tetrahydro-2H-pyran-4-yl)imidazo[1,2-b]pyridazin-6-amine] | > 50 µM |  |  | 
CC(=O)c1n[nH]c2ccc(-c3cnc4ccc(N(C)C5CCOCC5)nn34)cc12 [Compound 54, 1-(5-(6-(Methyl(tetrahydro-2H-pyran-4-yl)amino)imidazo[1,2-b]pyridazin-3-yl)-1H-indazol-3-yl)ethan-1-one] | > 50 µM |  |  | 
CCCN(C)c1ccc2ncc(-c3cnc4[nH]ncc4c3)n2n1 [Compound 56, N-Methyl-N-propyl-3-(1H-pyrazolo[3,4-b]pyridin-5-yl)imidazo[1,2-b]pyridazin-6-amine] |  | 5% |  | 
c1nn(C2CCOCC2)cc1Nc1ncc2nnn(-c3ccc4cn[nH]c4c3)c2n1 [Compound A-92] |  | 32% | 93% | decrease of luminescence signal from cells overexpressing the control Fluc construct ([1]; 6 hours, represents the cytotoxic effect): 32±7%; IC50 (HuR; [3]): 4.5 µM; maximum inhibition of HuR dimerization (HuR; after 6 hours of cell treatment): 93±2%
OCc1ccccc1-c1cnc2ccc(NC3CCOCC3)nn12 [Compound 7] | > 100 µM |  |  | 
Brc1cnc2ccc(NC3CCOCC3)nn12 [SRI-42219] |  | 32% | 82% | IC50 (HuR; [3]): 20 to 22 µM
O=C(CCn1ccc(=O)[nH]c1=O)N1CCN(C(=O)C2CC2c2ccc3c(c2)OCO3)CC1 (stereo not shown) [SRI-43654] |  | 0% | 0% | 
CN(c1ccc2ncc(-c3ccc4cnn(C)c4c3)n2n1)C1CCOCC1 [Compound 21, N-Methyl-3-(1-methyl-1H-indazol-6-yl)-N-(tetrahydro-2H-pyran-4-yl)imidazo[1,2-b]pyridazin-6-amine] | 3.4 µM | 28% | 71% | IC50 (HuR; [3]): 3.4 µM
COc1ccc(-c2cnc3ccc(NC4CCCCC4)nn23)cc1 [Compound 15] | > 30 µM |  |  | 
CN1CCN(Cc2ccc(-c3cnc4[nH]cc(-c5ccc6[nH]ccc6c5)c4c3)cc2)CC1 [SRI-41647] |  | 4% | 89% | IC50 (HuR; [3]): > 25 µM
Cc1nn(C)c2cc(-c3cnc4ccc(NC5CCOCC5)nn34)ccc12 [Compound 34, 3-(1,3-Dimethyl-1H-indazol-6-yl)-N-(tetrahydro-2H-pyran-4-yl)imidazo[1,2-b]pyridazin-6-amine] | 40 µM |  |  | 
CCCN(C)c1ccc2ncc(-c3cccc(N(C)C)c3)n2n1 [Compound 16, 3-(3-(Dimethylamino)phenyl)-N-methyl-N-propylimidazo[1,2-b]pyridazin-6-amine] | > 50 µM |  |  | 
CC(=O)Nc1cccc(-c2cnc3ccc(NC4CCOCC4)nn23)c1 [Compound 9] | > 30 µM |  |  | 
c1ccc(-c2cnc3ccc(NC4CCOCC4)nn23)cc1 [Compound 11] | 18 µM |  |  | 
CN1CCC(N(C)c2ccc3ncc(-c4ccc5cn[nH]c5c4)n3n2)CC1 [Compound 25, 3-(1H-Indazol-6-yl)-N-methyl-N-(1-methylpiperidin-4-yl)imidazo[1,2-b]pyridazin-6-amine] | > 50 µM |  |  | 
Cc1n[nH]c2cc(-c3cnc4ccc(NC5CCOCC5)nn34)ccc12 [Compound 31, 3-(3-Methyl-1H-indazol-6-yl)-N-(tetrahydro-2H-pyran-4-yl)imidazo[1,2-b]pyridazin-6-amine] | > 50 µM |  |  | 
Cc1nn(C)c2cc(-c3cnc4ccc(N(C)C5CCOCC5)nn34)ccc12 [Compound 35, 3-(1,3-Dimethyl-1H-indazol-6-yl)-N-methyl-N-(tetrahydro-2H-pyran-4-yl)imidazo[1,2-b]pyridazin-6-amine] | > 50 µM |  |  | 
Cc1nn(C)c2ccc(-c3cnc4ccc(N(C)C5CCOCC5)nn34)cc12 [Compound 44, 3-(1,3-Dimethyl-1H-indazol-5-yl)-N-methyl-N-(tetrahydro-2H-pyran-4-yl)imidazo[1,2-b]pyridazin-6-amine] |  |  |  | HuR IC50 (HuR; [2]): Insoluble
CCCN(C)c1ccc2ncc(-c3ccc4c(C)nn(C)c4c3)n2n1 [Compound 36, 3-(1,3-Dimethyl-1H-indazol-6-yl)-N-methyl-N-propylimidazo[1,2-b]pyridazin-6-amine] | > 50 µM |  |  | 
